Assays:
[1] = system: MFN1 and MFN2 expression in C2C12 cells; experiment: Western blot analysis of MFN1 and MFN2 expression in C2C12 cells stably expressing ALCAT1 or vector control, treated with H2O2; type: cell-based
Method: FIG. 7G: Western blot analysis of MFN1 and MFN2 expression in C2C12 cells stably expressing vector, ALCAT1, or ALCAT1 but were pretreated various doses (0, 1M, and 5M) of diphenyliodonium (DPI), an NADPH oxidase inhibitor, prior to treatment with 1.5 mM of H2O2.
The C2C12-A1 cells and vector control were treated with increasing doses of H2O2 as used in FIG. 7E, followed by analysis of MFN2 expression by western blot analysis.

[2] = system: phosphorylation of Akt and Erk in H9c2 cells; experiment: Western blot analysis of phosphorylation of Akt and Erk in H9c2 cardiac cells stimulated with insulin; type: cell-based; details: vector control H9c2 cells, indicated doses of insulin, FIG. 17A
Method: FIGS. 17A-17B: H9c2 cardiac cells stably expressing ALCAT1 or vector control were stimulated with indicated doses of insulin (FIG. 17A) or with 100 nM of T3 for the indicated time (FIG. 17B), followed by analysis of phosphorylation of Akt, Erk, S6K1, and 4E-BP by western blot analysis using β-actin as an internal control. FIG. 17C: WT and KO mice were treated with vehicle or T4 for 28 days, followed by Western blot analysis of phosphorylation of Akt, GSK3α/β, and 4E-BP in cardiomyocytes by Western blot analysis using GAPDH as an internal control.
Oxidative Stress by ALCAT1 Regulates Akt-mTOR Signal Transduction Pathways in Cardiomyopathy: Hyperthyroidism leads to cardiomyopathy by stimulating protein synthesis in the cardiomyocytes. To identify molecular mechanisms underlying a role of ALCAT1 in hypertrophic growth, the effects of ALCAT1 overexpression and deficiency were analyzed on signal transduction pathways involved in cellular growth and proliferation, including phosphorylation of Akt, Erk, S6K, and 4E-BP1, in H9c2 cells and in mice with hyperthyroidism. Increased ROS levels lead to insulin resistance which plays a causative role in cardiac dysfunction. […] In support of the findings in H9c2 cells, short term treatment of mice with thyroid hormone stimulated cardiac Akt-mTOR phosphorylation in both ALCAT1 knockout mice and the WT mice (FIG. 20).

OO [H2O2, Hydrogen Peroxide]
MFN1 and MFN2 expression ([1]; vector control C2C12 cells, increasing doses of H2O2, FIG. 7F): dose-dependently depleted MFN1 and MFN2 expression

c1ccc2c(c1)[I+]c1ccccc1-2 [DPI, diphenyleneiodonium]
loss of MFN expression in response to H2O2 ([1]; C2C12-A1 cells (stably expressing ALCAT1) pre-incubated with DPI (0, 1M, and 5M) prior to 1.5 mM H2O2, FIG. 7G): dose-dependently prevented the loss of MFN expression

insulin: hormone used to stimulate Akt and Erk phosphorylation in H9c2 cells
phosphorylation of Akt and Erk [2]: dose-dependently stimulated phosphorylation of Akt and Erk

Reference: patent US10526418B2, “Modulators of ACYL-COA lysocardiolipin acyltransferase 1 (ALCAT1) and uses thereof” (priority 2012, dated 2020)
